Tests used:
Test in all cases: gel filtration, radiolabeled GTP
Details in all cases: reduced relative to wild type
[1] = test system: c-MYC transcriptional repressor mut (DNA, G4) GGGTAGGAAGGGTAGGA
[2] = test system: VEGF IRES mut (RNA, G4) UGAUGAGUGUGAGGAGGA
[3] = test system: NRAS translational repressor mut (RNA, G4) GGUAGGGUCGGUUCUGGU

Measured: binding

Nc1nc2c(ncn2[C@@H]2O[C@H](COP(=O)(O)OP(=O)(O)OP(=O)(O)O)[C@@H](O)[C@H]2O)c(=O)[nH]1
weak: [1] | [2] | [3]

Source: PMC3703636 (2013)
